Results taken from the Deep4Chem optical property database.
Values belong to the compound of their own block, whether it stands above or below them.

Test: photoluminescence quantum yield (fraction); solvent given as SMILES

photoluminescence quantum yield (in ClCCl): 0.15
SMILES: CN(C)c1ccc(/C=C/c2ccncn2)cc1

photoluminescence quantum yield (in C1CCCCC1): 0.02
photoluminescence quantum yield (in CO): 0.003
SMILES: Cc1ccc(/C=C/c2nc3ccccc3s2)cc1

photoluminescence quantum yield (in C1CCOC1): 0.006
photoluminescence quantum yield (in CC#N): 0.004
photoluminescence quantum yield (in CCO): 0.043
photoluminescence quantum yield (in CS(C)=O): 0.025
SMILES: CCOC(=O)c1ccccc1-c1c2ccc(=O)cc-2oc2cc(OC(=O)[C@H](CSCc3ccc(C)cc3)NC(=O)OC(C)(C)C)ccc12

photoluminescence quantum yield (in ClCCl): 0.14
SMILES: Cc1cc(-c2ccc(C(C)(C)C)cc2)c2nsnc2c1-c1ccc(C(C)(C)C)cc1

photoluminescence quantum yield (in CC#N): 0.5
SMILES: CCCCCCCCCC[n+]1cc2ccc3c[n+](CCCCCCCCCC)cc4ccc(c1)c2c34

photoluminescence quantum yield (in C1COCCO1): 0.7
photoluminescence quantum yield (in CC#N): 0.75
photoluminescence quantum yield (in CO): 0.58
SMILES: CN(C)c1ccc(/C=C/C=C/C2=NC3C(=O)NC(N)=NC3N2[C@H]2C[C@H](O)[C@@H](CO)O2)cc1 (stereo not given in full)

photoluminescence quantum yield (in ClCCl): 0.49
SMILES: COc1ccc(-c2cnc(C#Cc3ccccc3)o2)cc1OC

photoluminescence quantum yield (in CC1CCCCC1): 0.46
photoluminescence quantum yield (in CC#N): 0.45
SMILES: C(=C\c1c2ccccc2cc2ccccc12)/c1ccccc1

photoluminescence quantum yield (in CCCCCC): 0.632
photoluminescence quantum yield (in CO): 0.256
photoluminescence quantum yield (in ClCCl): 0.534
SMILES: CN(C)c1ccc(C#Cc2ccc3ccc4ccc(C#Cc5ccc(N(C)C)cc5)c5ccc2c3c45)cc1

photoluminescence quantum yield (in ClCCl): 0.76
SMILES: O=S1(=O)C2=C(c3ccccc31)C1(C3=C(c4ccccc41)S(=O)(=O)c1ccccc13)c1ccccc12

photoluminescence quantum yield (in ClCCl): 0.4
SMILES: COc1ccc(C2=C3C(/C=C/c4cc(OC)c(OC)c(OC)c4)=C(C=O)C(/C=C/c4cc(OC)c(OC)c(OC)c4)=[N+]3[B-](F)(F)n3c(/C=C/c4cc(OC)c(OC)c(OC)c4)c(C=O)c(C=Cc4cc(OC)c(OC)c(OC)c4)c32)cc1

photoluminescence quantum yield (in CO): 0.0015
photoluminescence quantum yield (in ClC(Cl)Cl): 0.003
photoluminescence quantum yield (in ClCCl): 0.003
SMILES: C(#Cc1ccccc1)c1ccccc1

photoluminescence quantum yield (in ClCCl): 0.5
SMILES: CC(C)[Si](C#Cc1c2nc3ccccc3nc2c(C#C[Si](C(C)C)(C(C)C)C(C)C)c2nc3c4ccccc4c(=O)c4ccccc4c3nc12)(C(C)C)C(C)C

photoluminescence quantum yield (in CO): 0.52
SMILES: N#Cc1ccc(-c2nc(-c3ccccc3)c(-c3ccccc3)[nH]2)cc1

photoluminescence quantum yield (in CC#N): 0.19
SMILES: CCC12N=N[C@](CC)(C3C4CCC(C4)C31)C1[C@@H]3CC[C@@H](C3)[C@H]12 (stereo not given in full)

photoluminescence quantum yield (in C1CCCCC1): 0.338
photoluminescence quantum yield (in CCOC(C)=O): 0.202
photoluminescence quantum yield (in CN(C)C=O): 0.015
photoluminescence quantum yield (in CO): 0.002
photoluminescence quantum yield (in ClCCl): 0.292
SMILES: CCN(CC)c1ccc2c(c1)oc(=O)c1cc3c(-c4ccccc4)nn(C)c3nc12

photoluminescence quantum yield (in CN(C)C=O): 0.0179
SMILES: CCN(CC)c1ccc(-c2nc(Oc3ccc(-c4nc5ccc(Cl)cc5o4)cc3)nc(Oc3ccc(-c4nc5ccc(Cl)cc5o4)cc3)n2)cc1

photoluminescence quantum yield (in C1CCOC1): 0.44
SMILES: CC(C)(C)c1ccc(C2=Cc3cc4c(cc3P2(=O)c2ccccc2)C=C(c2ccc(C(C)(C)C)cc2)P4(=O)c2ccccc2)cc1 (stereo not given)

photoluminescence quantum yield (in CO): 1
SMILES: CC1=CC(/C=C/c2ccc(OCCCN=[N+]=[N-])cc2)=[N+]2C1=C(c1ccccc1)c1c(C)cc(C)n1[B-]2(F)F

photoluminescence quantum yield (in ClCCl): 0.3
SMILES: CC(C)(C)c1ccc2c(c1)c1cc(C(C)(C)C)ccc1n2-c1ccc(C#Cc2ccc(C#Cc3ccc(C=C(C#N)C#N)cc3)cc2)cc1

photoluminescence quantum yield (in C1COCCO1): 0
SMILES: COC(=O)c1ccc(/C=C2\N=C(c3ccccc3)OC2=O)cc1

photoluminescence quantum yield (in CC#N): 0.3
photoluminescence quantum yield (in CCCCCC): 0.51
SMILES: C(=C\c1ccc(Nc2ccccc2)cc1)/c1ccccc1

photoluminescence quantum yield (in C1CCCCC1): 0.931
photoluminescence quantum yield (in CCOC(C)=O): 0.685
photoluminescence quantum yield (in CN(C)C=O): 0.37
photoluminescence quantum yield (in CO): 0.294
photoluminescence quantum yield (in ClCCl): 0.829
SMILES: CCN(CC)c1ccc2c(c1)oc(=O)c1c(C)nc3c(cnn3-c3ccccc3)c12

photoluminescence quantum yield (in ClCCl): 0.17
SMILES: O=C(c1ccc2c3c(cccc13)-c1cccc3c1C2CC=C3)c1c(CCc2ccccc2)c2ccc3cccc4c5cccc6ccc1c(c65)c2c34 (stereo not given)

photoluminescence quantum yield (in CCCCCC): 0.9
SMILES: Cc1cc(C)c(B(c2cc3c4c(c(B(c5c(C)cc(C)cc5C)c5c(C)cc(C)cc5C)cc5c4c2CCC5)CCC3)c2c(C)cc(C)cc2C)c(C)c1

photoluminescence quantum yield (in CC#N): 0
SMILES: COc1ccc(-c2csc(/C(C#N)=C/c3ccc([N+](=O)[O-])cc3)n2)cc1

Continued, compound first:

SMILES: CCC1=C(C)C2=Cc3c4ccccc4c4n3[B-](c3ccc5cc6ccccc6cc5c3)(Oc3ccccc3-4)[N+]2=C1C (stereo not given)
photoluminescence quantum yield (in CC#N): 0.66
photoluminescence quantum yield (in CCCCCC): 0.75
photoluminescence quantum yield (in Cc1ccccc1): 0.68
photoluminescence quantum yield (in ClCCl): 0.76

SMILES: CCCCCCCCc1ccc(-n2c3c4ccccc4nc(-c4ccc(C#N)cc4)c3c3c2c2c(-c4ccc(C#N)cc4)nc4ccccc4c2n3-c2ccc(CCCCCCCC)cc2)cc1
photoluminescence quantum yield (in ClC(Cl)Cl): 0.14

SMILES: CCCCCCCCCCCCN1C(=O)c2c(c3ccc4cc(-c5ccccc5)c(OC)cc4c3c3c2ccc2cc(-c4ccccc4)c(OC)cc23)C1=O
photoluminescence quantum yield (in ClCCl): 0.148

SMILES: CCCCCCCCCCCCOc1cc2c3c(ccc4c5c(N6CCOCC6)cc6c7c(ccc(c1c34)c75)C(=O)N(C1CCCCC1)C6=O)C(=O)N(C1CCCCC1)C2=O
photoluminescence quantum yield (in ClC(Cl)Cl): 0.067

SMILES: CCc1cc(CC)cc(-n2c3ccccc3c3cc4c(cc32)c2ccccc2n4-c2cc(CC)cc(CC)c2)c1
photoluminescence quantum yield (in ClC(Cl)Cl): 0.14

SMILES: COC(=O)c1cc(=O)n(C)c2cc(-c3ccc(Oc4ccccc4)cc3)sc12
photoluminescence quantum yield (in CC#N): 0.63
photoluminescence quantum yield (in ClCCl): 0.83

SMILES: CCCCCCC(CCCCCC)n1c(=O)c2c3ccc4cccc5c6cccc7ccc(c2c1=O)c(c76)c3c45
photoluminescence quantum yield (in C1CCCCC1): 0.32
photoluminescence quantum yield (in CC#N): 0.33
photoluminescence quantum yield (in CC(C)=O): 0.27
photoluminescence quantum yield (in CCCCCC): 0.32
photoluminescence quantum yield (in CCO): 0.3
photoluminescence quantum yield (in CCOCC): 0.34
photoluminescence quantum yield (in CS(C)=O): 0.44
photoluminescence quantum yield (in Cc1ccccc1): 0.42
photoluminescence quantum yield (in ClC(Cl)(Cl)Cl): 0.37
photoluminescence quantum yield (in ClC(Cl)Cl): 0.35

SMILES: CC1(C)c2ccccc2N(c2cc[n+]3c(c2)-c2ccccc2O[B-]3(F)F)c2ccccc21
photoluminescence quantum yield (in O=P(c1ccccc1)(c1ccccc1)c1ccccc1Oc1ccccc1P(=O)(c1ccccc1)c1ccccc1): 0.65

SMILES: CC(C)(C)c1cc2c3c(c1)c1cc(C(C)(C)C)cc4c1n3B1c3c-2cccc3-c2cc(C(C)(C)C)cc3c5cc(C(C)(C)C)cc-4c5n1c23
photoluminescence quantum yield (in C1CCOC1): 0.25

SMILES: CCCCN1C(=O)c2cc(Oc3ccc(C(C)(C)C)cc3)c3c4c(Oc5ccc(C(C)(C)C)cc5)cc5c(=O)[nH]/c(=C\c6ccc7ccccc7n6)c6cc(Oc7ccc(C(C)(C)C)cc7)c(c7c(Oc8ccc(C(C)(C)C)cc8)cc(c2c37)C1=O)c4c56
photoluminescence quantum yield (in C1CCOC1): 0.3
photoluminescence quantum yield (in Cc1ccccc1): 0.313
photoluminescence quantum yield (in ClCCl): 0.332

SMILES: Cc1ccccc1C(=O)NN1C2=C(CC3=C1CC(C)(C)CC3=O)C(=O)CC(C)(C)C2
photoluminescence quantum yield (in C1CCOC1): 0.26
photoluminescence quantum yield (in CC#N): 0.7
photoluminescence quantum yield (in CC(C)=O): 0.53
photoluminescence quantum yield (in CCCCCO): 0.5
photoluminescence quantum yield (in CO): 0.3
photoluminescence quantum yield (in ClC(Cl)Cl): 0.64
photoluminescence quantum yield (in ClCCl): 0.47

SMILES: COc1ccc2c(-c3nc(-c4ccccc4F)no3)cc(=O)oc2c1
photoluminescence quantum yield (in CCO): 0.57
photoluminescence quantum yield (in ClC(Cl)Cl): 0.25

SMILES: CC1=C(C#Cc2ccccc2)C2=Cc3c(C#Cc4ccccc4)c(C)c(C)n3[B-](F)(F)[N+]2=C1C
photoluminescence quantum yield (in CC#N): 1

SMILES: FC(F)(F)c1cc2n(n1)[B-](c1ccccc1)(c1ccccc1)[n+]1ccc3ccccc3c1-2
photoluminescence quantum yield (in C1CCCCC1): 0.999
photoluminescence quantum yield (in Cc1ccccc1): 0.712
photoluminescence quantum yield (in ClCCl): 0.778

SMILES: N#Cc1cc2ccc(cc2)c2cccc3cccc(c4ccc(cc4)cc(C#N)c4ccc(cc4)c4cccc5cccc(c6ccc1cc6)c54)c32
photoluminescence quantum yield (in Cc1ccccc1): 0.55

SMILES: COc1ccc(-c2ccc(-c3ccc(F)cc3)cc2)cc1
photoluminescence quantum yield (in C1COCCO1): 0.57

SMILES: COc1ccc(C2=CC(c3ccc4cc(N(C)C)ccc4c3)=[O+][B-](F)(F)O2)cc1
photoluminescence quantum yield (in C1CCOC1): 0.52
photoluminescence quantum yield (in CC#N): 0.01
photoluminescence quantum yield (in CC(C)=O): 0.12
photoluminescence quantum yield (in CS(C)=O): 0.007
photoluminescence quantum yield (in Cc1ccccc1): 0.95
photoluminescence quantum yield (in ClC(Cl)Cl): 0.99
photoluminescence quantum yield (in ClCCl): 0.62

SMILES: Cc1cc(C)c(C2=C3C=C(/C=C/C(=O)OCc4ccccc4)C=[N+]3[B-](F)(F)n3cccc32)c(C)c1
photoluminescence quantum yield (in ClCCl): 0.36

SMILES: CC(C)(C)c1cc2ccc3c(N(c4ccccc4)c4ccccc4)cc(N(c4ccccc4)c4ccccc4)c4ccc(c1)c2c34
photoluminescence quantum yield (in ClCCl): 0.82

SMILES: C=CC12N=N[C@](C=C)(C3C4CCC(C4)C31)C1[C@@H]3CC[C@@H](C3)[C@H]12 (stereo not given in full)
photoluminescence quantum yield (in CC#N): 0.16

SMILES: COc1ccc2c(-c3nc(-c4cccc(C)c4)no3)cc(=O)oc2c1
photoluminescence quantum yield (in CCO): 0.52
photoluminescence quantum yield (in ClC(Cl)Cl): 0.12

SMILES: O=C(c1ccc(/C(=C(/c2ccccc2)c2ccc(C(=O)c3ccc(-n4c5ccccc5c5ccccc54)cc3)cc2)c2ccccc2)cc1)c1ccc(-n2c3ccccc3c3ccccc32)cc1
photoluminescence quantum yield (in C1CCOC1): 0.268

SMILES: O=C1/C(=C2\Sc3ccc(S(=O)(=O)Cl)cc3C2=O)Sc2ccc(S(=O)(=O)Cl)cc21
photoluminescence quantum yield (in C1COCCO1): 0.949
photoluminescence quantum yield (in CS(C)=O): 0.012

SMILES: N#Cc1cc(-n2c3ccccc3c3ccccc32)c(C#N)cc1-n1c2ccccc2c2ccccc21
photoluminescence quantum yield (in c1cc(-c2cccc(-n3c4ccccc4c4ccccc43)c2)cc(-n2c3ccccc3c3ccccc32)c1): 0.87
photoluminescence quantum yield (in c1ccc2c(c1)c1ccccc1n2P1(n2c3ccccc3c3ccccc32)=NP(n2c3ccccc3c3ccccc32)(n2c3ccccc3c3ccccc32)=NP(n2c3ccccc3c3ccccc32)(n2c3ccccc3c3ccccc32)=N1): 0.85

SMILES: COc1c2ccccc2c(OC)c2c1c1cccc(OC)c1n2C
photoluminescence quantum yield (in C1CCCCC1): 0.39
photoluminescence quantum yield (in CC#N): 0.4
photoluminescence quantum yield (in CO): 0.39
photoluminescence quantum yield (in ClCCl): 0.44

SMILES: CC1(C)c2ccccc2N(c2ccc3c(ccc4nc5ccc6cc(N7c8ccccc8C(C)(C)c8ccccc87)ccc6c5nc43)c2)c2ccccc21
photoluminescence quantum yield (in C1CCCCC1): 0.16
photoluminescence quantum yield (in C1CCOC1): 0.07
photoluminescence quantum yield (in Cc1ccccc1): 0.11
photoluminescence quantum yield (in ClCCl): 0.05

SMILES: CN(C)c1ccc(C2=[N+]3C(=Nc4c(-c5ccc(O)cc5)cc(-c5ccc(N(C)C)cc5)n4[B-]3(F)F)C(c3ccc(O)cc3)=C2)cc1
photoluminescence quantum yield (in C1CCOC1): 0.04
photoluminescence quantum yield (in Cc1ccccc1): 0.1

SMILES: Nc1ccccc1
photoluminescence quantum yield (in C1CCCCC1): 0.1

SMILES: CCCCn1c(-c2ccc(-c3nnc(-c4ccc(-c5nc(-c6ccccc6)c(-c6ccccc6)n5CCCC)cc4)o3)cc2)nc(-c2ccccc2)c1-c1ccccc1
photoluminescence quantum yield (in ClCCl): 0.69
